From publication PMC7055011 (Bioorganic & medicinal chemistry, 2019)

Key:
[1] = Human liver microsomal stability; assay type: in vitro ADME; details: for CLint scaled at 2 h, 1 µM: human, microsomes, pH 7.4
[2] = molecular target: T1, hAPJ (Homo sapiens, UniProt P35414); test: Lance cAMP accumulation assay; assay type: cell-based
T1 sequence (P35414 1-380): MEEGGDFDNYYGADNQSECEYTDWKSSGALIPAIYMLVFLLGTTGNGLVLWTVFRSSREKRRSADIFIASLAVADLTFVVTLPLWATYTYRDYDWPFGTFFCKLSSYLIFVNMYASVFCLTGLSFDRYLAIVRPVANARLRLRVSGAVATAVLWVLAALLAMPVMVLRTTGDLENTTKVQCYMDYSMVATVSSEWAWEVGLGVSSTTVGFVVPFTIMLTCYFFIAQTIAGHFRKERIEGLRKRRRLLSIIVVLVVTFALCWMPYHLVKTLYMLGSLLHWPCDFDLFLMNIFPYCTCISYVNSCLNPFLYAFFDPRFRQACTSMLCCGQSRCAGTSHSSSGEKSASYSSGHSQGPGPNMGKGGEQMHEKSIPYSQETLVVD

[3] = tested on: 5-HT1A, α2C adrenergic, mu-opioid, benzylpiperazine receptors and norepinephrine transporter; details: cited from earlier work
[4] = cited from earlier work
[5] = cited from earlier work; remark: listed apart in the source
[6] = tested on: apelin receptor; details: cited from earlier work
[7] = molecular target: T2, human angiotensin II receptor, type I (Homo sapiens, UniProt P30556); details: cited from earlier work
T2 sequence (P30556 1-359): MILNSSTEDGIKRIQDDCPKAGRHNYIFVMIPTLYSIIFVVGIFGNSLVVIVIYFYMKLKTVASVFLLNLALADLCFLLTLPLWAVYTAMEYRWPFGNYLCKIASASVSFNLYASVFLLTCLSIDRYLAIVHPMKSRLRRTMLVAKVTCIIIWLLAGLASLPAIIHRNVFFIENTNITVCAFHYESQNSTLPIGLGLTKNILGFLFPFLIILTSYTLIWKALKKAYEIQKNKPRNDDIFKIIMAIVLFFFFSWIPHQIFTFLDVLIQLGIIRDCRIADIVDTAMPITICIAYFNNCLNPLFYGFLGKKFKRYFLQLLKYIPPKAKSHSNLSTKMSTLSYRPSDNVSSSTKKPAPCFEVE

[8] = tested on: NTR2; details: compared with hit 8; cited from earlier work

SMILES: CCOc1ccc2c(C)cc(=O)oc2c1 [7-ethoxy-4-methylcoumarin]
- CLint scaled at 2 h, 1 µM [1]: 325 mL/min/kg

SMILES: COc1cccc(OC)c1-c1cc(C(=O)N[C@@H](CCC2CCCCC2)CC(=O)O)nn1CC1CCCCC1 [Compound 15, (S)-5-Cyclohexyl-3-(1-(cyclohexylmethyl)-5-(2,6-dimethoxyphenyl)-1H-pyrazole-3-carboxamido)pentanoic acid]
- Activity in cAMP assay [2]: completely inactive

SMILES: COc1cccc(OC)c1-c1cc(C(=O)N[C@@H](CCC2CCCCC2)CC(=O)O)nn1C1CCCCCCC1 [Compound 16, (S)-5-Cyclohexyl-3-(1-cyclooctyl-5-(2,6-dimethoxyphenyl)-1H-pyrazole-3-carboxamido)pentanoic acid]
- Activity in cAMP assay [2]: completely inactive

SMILES: CC1=CC(=O)C(C2CCCCC2)=C/C1=N\OS(=O)(=O)c1ccccc1 [ML233, (E)-2-cyclohexyl-5-methyl-4-(phenylsulfonyloxyimino)cyclohexa-2,5-dienone]
- Off-target binding [3]: significant off-target binding
- Solubility [4]: poor solubility
- Stability in microsomal fractions [5]: poor

SMILES: CCC(CC)n1c(Cc2cccs2)nc2cc(C(=O)N[C@H](CC(=O)O)CC(C)C)ccc21 [CMF-019, (S)-5-Methyl-3-{1-(pentan-3-yl)-2-(thiophen-2-ylmethyl)-1H-benzo[d]imidazole5-carboxamido}hexanoic Acid]
- Bias towards Gαi signaling over receptor internalization [6]: ~ 6000 fold
- Bias towards Gαi signaling over β-arrestin recruitment [6]: ~ 400 fold

SMILES: COc1cccc(OC)c1-c1cc(C(=O)N[C@@H](CCC2CCCCC2)CC(=O)O)nn1-c1ccc(F)cc1 [Compound 9, (S)-5-cyclohexyl-3-(5-(2,6-dimethoxyphenyl)-1-(4-fluorophenyl)-1H-pyrazole-3-carboxamido)pentanoic acid]
- Activity at AT1 receptor, previously reported [7]: did not activate or inhibit
- Stability in human liver microsomes [1]: excellent stability
- CLint scaled at 2 h, 1 µM [1]: 5 mL/min/kg
- Off-target NTR2 activity [8]: significantly reduced
